Patent publication US20230047788A1, “COMPOSITIONS COMPRISING 5-CHOLESTEN-3, 25-DIOL, 3-SULFATE (25HC3S) OR PHARMACEUTICALLY ACCEPTABLE SALT THEREOF AND AT LEAST ONE CYCLIC OLIGOSACCHARIDE” (Virginia Commonwealth University, priority 2016, published 2023)

Assay: Effect of phosphate and borate buffers on chemical stability (% remaining, impurity profile), osmolality, pH and appearance of 25HC3S 30 mg/mL in 250 mg/mL HPBCD at 80°C and 60°C
Type: physicochemical
Method: A total of six 25HC3S formulations at 30 mg/mL in 250 mg/mL of 2-hydroxypropyl beta cyclodextrin (HPBCD) containing 10, 20, 50 and 100 mM phosphate buffers at pH 7.5 to 8.1 and 10 and 50 mM borate buffers at pH 9.4 were prepared for the stability study. The chemical stability (measured as % remaining of 25HC3S) and physical stability (osmolality, pH and appearance) of the formulations were monitored under accelerated conditions for up to 7 days at 80° C. and up to 29 days at 60° C.
Two stock solutions of phosphate buffer at 100 and 200 mM at pH 7.4 and 7.3, respectively and one borate buffer at 100 mM at pH 9.3 were prepared (Tables 22A and 22B) and used for 250 mg/mL HPBCD vehicles preparation (Table 23).
Approximately 1200 mg each of 25HC3S was weighed into 40 mL volumetric flasks and diluted to volume with the six HPBCD vehicles containing 10-100 mM phosphate buffers or 10 and 50 mM borate buffers, respectively (Table 24). The final concentration of 25HC3S was 30 mg/mL (wt/volume, without adjusting for API purity). Aliquots of 2 mL of each formulation were filled into 2 mL glass vials, stoppered and sealed for stability sample set-up at 60° C. and 80° C. to study the effect of phosphate buffer (pH 7.5-8.1) and borate buffer (pH 9.4) at various buffer concentrations on the stability of the HPBCD formulations (Table 26).
A 0.5 mL of sample solution was transferred to a 25 mL volumetric flask and QS'ed with methanol/water=95/5 for 25HC3S concentration determination by HPLC. The % remaining of 25HC3S was calculated as follows: […]

[1] = 250 mg/mL HPBCD, 50 mM borate, 80°C, day 0
[2] = 250 mg/mL HPBCD, 50 mM borate, 80°C, day 1
[3] = 250 mg/mL HPBCD, 50 mM borate, 80°C, day 2
[4] = 250 mg/mL HPBCD, 50 mM borate, 80°C, day 3
[5] = 250 mg/mL HPBCD, 50 mM borate, 80°C, day 7
[6] = 250 mg/mL HPBCD, 50 mM borate, day 0
[7] = 250 mg/mL HPBCD, 50 mM phosphate, 80°C, day 0
[8] = 250 mg/mL HPBCD, 50 mM phosphate, 80°C, day 1
[9] = 250 mg/mL HPBCD, 50 mM phosphate, 80°C, day 2
[10] = 250 mg/mL HPBCD, 50 mM phosphate, 80°C, day 3
[11] = 250 mg/mL HPBCD, 50 mM phosphate, 80°C, day 7
[12] = 250 mg/mL HPBCD, 50 mM phosphate, day 0
[13] = 250 mg/mL HPBCD, 100 mM phosphate, 80°C, day 0
[14] = 250 mg/mL HPBCD, 100 mM phosphate, 80°C, day 1
[15] = 250 mg/mL HPBCD, 100 mM phosphate, 80°C, day 2
[16] = 250 mg/mL HPBCD, 100 mM phosphate, 80°C, day 3
[17] = 250 mg/mL HPBCD, 100 mM phosphate, 80°C, day 7
[18] = 250 mg/mL HPBCD, 100 mM phosphate, day 0

In the case of `C[C@H](CCCC(C)(C)O)[C@H]1CC[C@H]2[C@@H]3CC=C4C[C@@H](OS(=O)(=O)[O-])CC[C@]4(C)[C@H]3CC[C@]12C.[Na+]` [25HC3S, 5-cholesten-3, 25-diol, 3-sulfate], the pH (250 mg/mL HPBCD, 20 mM phosphate, day 0) is reported as 7.81, the pH (250 mg/mL HPBCD, 50 mM borate, 60°C, 29 days) is reported as 9.19 and the 25HC3S concentration [1] is reported as 28.50 mg/mL. The “% Remaining of 25HC3S” value [1] was 100.0%, the 25HC3S concentration [2] was 26.78 mg/mL and the “% Remaining of 25HC3S” value [2] was 94.0%. For the same compound, the Osmolality [2] was 527 mmol/kg, the pH [2] was 9.34 and the 25HC3S concentration [3] was 25.45 mg/mL. The “% Remaining of 25HC3S” value [3] was 89.3%, the Osmolality [3] was 534 mmol/kg and the pH [3] was 9.28. The 25HC3S concentration [4] was 24.05 mg/mL, the “% Remaining of 25HC3S” value [4] was 84.4% and the Osmolality [4] was 535 mmol/kg. The pH [4] was 9.12, the 25HC3S concentration [5] was 20.20 mg/mL and the “% Remaining of 25HC3S” value [5] was 70.9%. The Appearance [5] was “brown clear solutions”, the Osmolality [5] was 569 mmol/kg and the pH [5] was 8.92. For the same compound, the Osmolality [6] was 524 mmol/kg, the pH [6] was 9.40 and the pH (250 mg/mL HPBCD, 50 mM phosphate, 60°C, 29 days) was 7.28. For the same compound, the 25HC3S concentration [7] was 28.50 mg/mL, the “% Remaining of 25HC3S” value [7] was 100.0% and the 25HC3S concentration [8] was 27.13 mg/mL. For the same compound, the “% Remaining of 25HC3S” value [8] was 95.2%, the Osmolality [8] was 427 mmol/kg and the pH [8] was 7.42. The 25HC3S concentration [9] was 25.83 mg/mL, the “% Remaining of 25HC3S” value [9] was 90.6% and the Osmolality [9] was 432 mmol/kg. The pH [9] was 7.29, the 25HC3S concentration [10] was 24.65 mg/mL and the “% Remaining of 25HC3S” value [10] was 86.5%. It also gave an Osmolality [10] of 423 mmol/kg, a pH [10] of 7.08 and a 25HC3S concentration [11] of 20.75 mg/mL. The “% Remaining of 25HC3S” value [11] was 72.8%, the Osmolality [11] was 453 mmol/kg and the pH [11] was 6.73. It also gave an Osmolality [12] of 415 mmol/kg, a pH [12] of 7.63 and a pH (250 mg/mL HPBCD, 100 mM phosphate, 60°C, 29 days) of 7.28. For the same compound, the 25HC3S concentration [13] was 28.58 mg/mL, the “% Remaining of 25HC3S” value [13] was 100.0% and the 25HC3S concentration [14] was 27.10 mg/mL. The “% Remaining of 25HC3S” value [14] was 94.8%, the Osmolality [14] was 589 mmol/kg and the pH [14] was 7.42. For the same compound, the 25HC3S concentration [15] was 25.83 mg/mL, the “% Remaining of 25HC3S” value [15] was 90.4% and the Osmolality [15] was 585 mmol/kg. For the same compound, the pH [15] was 7.33, the 25HC3S concentration [16] was 24.65 mg/mL and the “% Remaining of 25HC3S” value [16] was 86.2%. For the same compound, the Osmolality [16] was 589 mmol/kg, the pH [16] was 7.15 and the 25HC3S concentration [17] was 21.05 mg/mL. The “% Remaining of 25HC3S” value [17] was 73.7%, the Appearance [17] was “brown clear solution” and the Osmolality [17] was 616 mmol/kg. It also gave a pH [17] of 6.93, an Osmolality [18] of 573 mmol/kg and a pH [18] of 7.53. For the same compound, the Appearance (250 mg/mL HPBCD, 10, 20 and 50 mM phosphate, 80°C, up to 7 days) was “colorless clear solutions”, the “appearance when removed from 80°C oven and cooled to room temperature” value (10 or 50 mM borate formulations, 80°C up to 7 days) was “a white precipitate was observed” and the “25HC3S” value (60° C., day 0, Borate 10 mM) was 28.58 mg/mL. For the same compound, the “% Peak Area 25-Hydroxy Cholesterol at RRT = 3.67” value (60° C., day 0, Borate 10 mM) was 0.0 % Peak Area, the “% Peak Area 25HC3S” value (60° C., day 0, Borate 10 mM) was 99.7 % Peak Area and the “% Peak Area Major Thermal Degradant at RRT = 2.64” value (60° C., day 0, Borate 10 mM) was 0.3 % Peak Area. For the same compound, the “% Remaining of 25HC3S” value (60° C., day 0, Borate 10 mM) was 100.0%, the Osmolality (60° C., day 0, Borate 10 mM) was 316 mmol/kg and the pH (60° C., day 0, Borate 10 mM) was 9.36. The “25HC3S” value (60° C., day 0, Borate 50 mM) was 28.50 mg/mL, the “% Peak Area 25-Hydroxy Cholesterol at RRT = 3.67” value (60° C., day 0, Borate 50 mM) was 0.0 % Peak Area and the “% Peak Area 25HC3S” value (60° C., day 0, Borate 50 mM) was 99.9 % Peak Area. The “% Peak Area Major Thermal Degradant at RRT = 2.64” value (60° C., day 0, Borate 50 mM) was 0.2 % Peak Area, the “% Remaining of 25HC3S” value (60° C., day 0, Borate 50 mM) was 100.0% and the Osmolality (60° C., day 0, Borate 50 mM) was 524 mmol/kg.
